Experimental data as given in patent US7696129B2, “Substituted aromatic amide derivative, intermediate thereof, agrohorticultural insecticide containing thereof and method for the use thereof” (Nihon Nohyaku Co., Ltd., priority 2001, dated 2010).

How the values were obtained:
Type in all cases: in vivo
[1] = tested on: Diamond Back Moth (Plutella xylostella); assay: Test Example 1: insecticidal effect on diamond back moth, immersion of Chinese cabbage seedling with eggs; conditions: seedling with eggs immersed about 30 seconds, 25° C., six days after the immersion; for Test Example 1 (insecticidal effect, mortality criterion): 50 ppm; for mortality at 50 ppm: Plutella xylostella, 144 h, read-out: Test Example 1 (insecticidal effect, mortality criterion)
In short: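 Chinese cabbage seedlings bearing 2-day-old moth eggs dipped about 30 s in compound at 50 ppm, air-dried, held at 25° C. Hatched larvae counted six days later to give mortality; triplicate groups of 10 insects.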

[2] = tested on: Common Cutworm (Spodoptera litura); assay: Test Example 2: insecticidal effect on common cutworm, cabbage leaf immersion; conditions: cabbage leaf immersed about 30 seconds, second-instar larvae, 25° C., eight days after the inoculation; for Test Example 2 (insecticidal effect, mortality criterion): 50 ppm; for mortality at 50 ppm: Spodoptera litura, 192 h, read-out: Test Example 2 (insecticidal effect, mortality criterion)
In short: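 Cabbage leaf pieces dipped about 30 seconds in 50 ppm compound dilution, air-dried, then infested with second-instar larvae and kept at 25° C. Dead and alive counted eight days after inoculation to give mortality; triplicate groups of 10 insects.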

[3] = tested on: Smaller Tea Tortrix (Adxophyes sp.); assay: Test Example 3: insecticidal effect on smaller tea tortrix, tea leaf immersion; conditions: 50 ppm, tea leaves immersed about 30 seconds, larvae, 25° C., humidity 70%, eight days after the inoculation
In short: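 Tea leaves dipped about 30 s in compound diluted to 50 ppm, air-dried, then infested with smaller tea tortrix larvae at 25°C and 70% humidity. Mortality counted 8 days post-inoculation and scored by a graded criterion; triplicate groups of 10 insects.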

[4] = tested on: Diamond Back Moth (Plutella xylostella); assay: Test Example 4: controlling effect on diamond back moth with soil treatment (pricking-in hole treatment with granules); conditions: 10 mgAI/plant, soil treatment at fix planting, about 50 eggs inoculated nine days after planting
Description: Controlling Effect on Diamond Back Moth (Plutella xylostella) with Soil Treatment of […] The pricking-in hole treatment was done with the granules containing each compound listed in Tables 4 according to the formulation examples of the present invention, at the fix planting of […] (cultivar; YR Seitoku). Nine days after the fix planting, about 50 eggs of diamond back moth (Plutella xylostella) were innoculated, then the number of the parasitic insects of diamond back moth (Plutella xylostella) was counted on the specified days after the innoculation.

Row | SMILES | Test Example 1 (insecticidal effect, mortality criterion) [1] | Test Example 2 (insecticidal effect, mortality criterion) [2] | Test Example 3 (insecticidal effect, mortality criterion) [3] | Number of the parasitic insects/three plants After 18 days [4] | Number of the parasitic insects/three plants After 25 days [4] | Number of the parasitic insects/three plants After 32 days [4] | mortality at 50 ppm [1] [%] | mortality at 50 ppm [2] [%]
1 | CSCC(C)(C)NC(=O)c1c(I)cccc1C(=O)Nc1ccc(C(C(F)(F)F)C(F)(F)F)cc1C [5-30] | A (Mortality 100%) | A (Mortality 100%) | A (Mortality 100%) | 0 parasitic insects/three plants | 3 parasitic insects/three plants | 22 parasitic insects/three plants | – | –
2 | CSCC(C)(C)NC(=O)c1c(I)cccc1C(=O)Nc1ccc(C(C(F)(F)F)C(F)(F)F)cc1C [Compound No. 5-28, N^2-(1,1-dimethyl-2-methylthioethyl)-3-iodo-N^1-{2-methyl-4-[2,2,2-trifluoro-1-(trifluoromethyl)ethyl]phenyl}phthalamide] | – | – | A (Mortality 100%) | 0 parasitic insects/three plants | 5 parasitic insects/three plants | 14 parasitic insects/three plants | 100 | 100
3 | CSCC(C)(C)NC(=O)c1c(I)cccc1C(=O)Nc1ccc(C(C(F)(F)F)C(F)(F)F)nc1 [8-1] | A (Mortality 100%) | C (Mortality 89-80%) | E (Mortality 49% or less) | – | – | – | – | –
4 | CCc1cc(C(C(F)(F)F)C(F)(F)F)ccc1NC(=O)c1cccc(I)c1C(=O)NC(C)C [5-46] | A (Mortality 100%) | A (Mortality 100%) | A (Mortality 100%) | – | – | – | – | –
5 | CSCC(C)(C)NC(=O)c1c(I)cccc1C(=O)Nc1ccc(C(C(F)(F)F)C(F)(F)F)c(Cl)c1C [5-66] | A (Mortality 100%) | A (Mortality 100%) | A (Mortality 100%) | – | – | – | – | –
6 | CSCC(C)(C)NC(=O)c1c(I)cccc1C(=O)Nc1ccc(C(C(F)(F)F)C(F)(F)F)cc1Cl [5-52] | A (Mortality 100%) | A (Mortality 100%) | A (Mortality 100%) | – | – | – | – | –
7 | Cc1cc(C(C(F)(F)F)C(F)(F)F)ccc1NC(=O)c1cccc(I)c1C(=O)NC(C)(C)C[S+](C)[O-] (stereo not drawn) [Compound No. 5-29, N^2-(1,1-dimethyl-2-methylsulfinylethyl)-3-iodo-N^1-[2-methyl-4-{2,2,2-trifluoro-1-(trifluoromethyl)ethyl}phenyl]phthalamide] | – | – | A (Mortality 100%) | 0 parasitic insects/three plants | 0 parasitic insects/three plants | 0 parasitic insects/three plants | 100 | 100
8 | CCN(CC)C(=O)c1c(I)cccc1C(=O)Nc1ccc(C(C(F)(F)F)C(F)(F)F)cc1C [6-1] | A (Mortality 100%) | A (Mortality 100%) | A (Mortality 100%) | – | – | – | – | –
9 | Cc1cc(C(C(F)(F)F)C(F)(F)F)ccc1NC(=O)c1cccc(C(F)(F)F)c1C(=O)NC(C)(C)CS(C)(=O)=O [5-43] | A (Mortality 100%) | A (Mortality 100%) | A (Mortality 100%) | – | – | – | – | –
10 | CSCC(C)(C)NC(=O)c1c(I)cccc1C(=O)Nc1ccc(C(C(F)(F)F)C(F)(F)F)nc1C [8-11] | A (Mortality 100%) | A (Mortality 100%) | A (Mortality 100%) | – | – | – | – | –
11 | CON=CC(C)(C)NC(=O)c1c(I)cccc1C(=O)Nc1ccc(C(C(F)(F)F)C(F)(F)F)cc1C [5-26] | A (Mortality 100%) | C (Mortality 89-80%) | A (Mortality 100%) | – | – | – | – | –
12 | CSCC(C)(C)NC(=O)c1c(I)cccc1C(=O)Nc1ccc(CC(F)(F)F)cc1C [5-1] | A (Mortality 100%) | A (Mortality 100%) | A (Mortality 100%) | – | – | – | – | –
13 | CC(C)NC(=O)c1c(I)cccc1C(=O)Nc1ccc(C(C(F)(F)F)C(F)(F)F)cc1F [5-50] | A (Mortality 100%) | A (Mortality 100%) | A (Mortality 100%) | – | – | – | – | –
14 | COc1ccc(CNC(=O)OCC(C)NC(=O)c2c(I)cccc2C(=O)Nc2ccc(C(C(F)(F)F)C(F)(F)F)cc2C)cc1 (stereo not drawn) [5-38] | A (Mortality 100%) | A (Mortality 100%) | A (Mortality 100%) | – | – | – | – | –
15 | Cc1cc(C(C(F)(F)F)C(F)(F)F)ccc1NC(=O)c1cccc(I)c1C(=O)NC(C)COC(=O)NCc1ccc(C(F)(F)F)cc1 (stereo not drawn) [5-35] | A (Mortality 100%) | A (Mortality 100%) | A (Mortality 100%) | – | – | – | – | –
16 | Cc1cc(C(C(F)(F)F)C(F)(F)F)cc(C)c1NC(=O)c1cccc(I)c1C(=O)NC(C)C [5-67] | A (Mortality 100%) | E (Mortality 49% or less) | A (Mortality 100%) | – | – | – | – | –
